According to US12630510B2, “EP2 antagonist” (ONO PHARMACEUTICAL CO., LTD., priority 2019, dated 2026):

Experiments:
human EP2 receptor = target: T1, human EP2 receptor (Homo sapiens, UniProt P43116); assay: Experiment of measuring EP2 antagonistic activity using cells expressing prostanoid receptor (cAMP); format: cell-based; settings: CHO cells expressing human EP2 receptor; PGE2 10 nmol/L; cAMP quantified after 1 hour at room temperature; read-out: EP2_IC50
T1 construct: expressed in transfected cells; host or cells: CHO cells
Description: CHO cells on each of which a human EP2 receptor had been expressed were prepared in accordance with the method by Nishigaki et al, (FEBS Letters, vol. 364, pp. 339-341, 1995) and were then cryopreserved in CELLBANKER2 (Nippon Zenyaku Kogyo Co., Ltd.) at a concentration of 1.5×10^7 cells/mL/vial. The CHO cells thus prepared were used in the experiment. The cells were thawed, and were then suspended in an assay medium (D-PBS containing 1 mmol/L IBMX, 2 μmol/L Diclofenac) at a concentration of 5×10^5 cells/mL. PGE2 alone having a final concentration of 10 nmol/L or a solution (10 μL) containing the PGE2 and a test compound was added to the cell suspension (10 μL) to initiate the reaction. After the reaction was performed at room temperature for 1 hour, the amount of cAMP in the cells was quantified in accordance with the method described in cAMP Gs Dynamic kit (CISBIO).
The antagonistic activity (IC50 value) of a test compound was calculated as a percentage of suppression of the reaction at 10 nM, which was a concentration at which a submaximal cAMP production activity was observed when PGE2 alone was employed. In this manner, an IC50 value was determined.

[1] = tested on: mouse colorectal cancer cell line CT26; assay: Anti-tumor effect in allogenic transplantation model of mouse colorectal cancer cell line CT26; format: in vivo; settings: female Balb/C mice, CT26 subcutaneous; 10 mg/kg per single dose, once on day-4, twice per day day-5 to day-25
Description: The anti-tumor effect of the compound of the present invention was evaluated in an allogenic transplantation model of CT26 that was a mouse colorectal cancer cell line. CT26 was cultured in a RPMI-1640 medium supplemented with 10 vol % of heat-inactivated fetal bovine serum (FBS), 100 units/mL of penicillin and 100 μg/mL of streptomycin in a CO2 incubator. On the day of transplantation, a culture supernatant was removed, CT26 was washed with a phosphate buffered saline (also abbreviated as “PBS”, hereinafter) and was then collected. The collected CT26 was suspended in PBS and was used as cells for transplantation. 300,000 cells for the transplantation were transplanted subcutaneously into female Balb/C mice (Charles River Laboratories Japan) on the right back. Four days after the transplantation, the mice were divided into two groups, i.e., a medium group and a compound A group, each including 10 cases. […] With respect to a tumor volume (mm^3), a shorter diameter and a longer diameter of a tumor were measured with an electronic caliper, and the tumor volume was calculated in accordance with mathematical formula 1 shown below. […]

T1 sequence (P43116 whole entry): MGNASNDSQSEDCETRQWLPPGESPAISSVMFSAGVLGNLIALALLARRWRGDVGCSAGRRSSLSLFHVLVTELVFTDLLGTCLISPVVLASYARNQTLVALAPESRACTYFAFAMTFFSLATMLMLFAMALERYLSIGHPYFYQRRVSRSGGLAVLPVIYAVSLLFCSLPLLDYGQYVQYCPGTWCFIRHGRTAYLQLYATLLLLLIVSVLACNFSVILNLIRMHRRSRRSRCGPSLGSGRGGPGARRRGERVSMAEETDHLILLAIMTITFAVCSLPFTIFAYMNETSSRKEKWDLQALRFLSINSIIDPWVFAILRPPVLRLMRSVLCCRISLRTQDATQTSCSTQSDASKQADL

Row | IC50 (human EP2 receptor) | SMILES | tumor volumes on day-25 of the transplantation compared with medium-administered group [1]
1 | 0.4 nM | CC[C@H](C)n1c(CCOCc2ccccc2)ccc1C(=O)Nc1cc([C@H]2C[C@H]2C(=O)O)ccc1C(F)(F)F [Example 8, (1R,2S)-2-{3-[({5-[2-(Benzyloxy)ethyl]-1-[(2S)-2-butanyl]-1H-pyrrol-2-yl}carbonyl)amino]-4-(trifluoromethyl)phenyl}cyclopropanecarboxylic acid] | 
2 | 0.3 nM | CC[C@H](C)n1c(CCOc2cc(F)nc(Cl)c2)ccc1C(=O)Nc1cc([C@H]2C[C@H]2C(=O)O)ccc1C(F)(F)F [Example 10, (1R,2S)-2-[3-{[(1-[(2S)-2-Butanyl]-5-{2-[(2-chloro-6-fluoro-4-pyridinyl)oxy]ethyl}-1H-pyrrol-2-yl)carbonyl]amino}-4-(trifluoromethyl)phenyl]cyclopropanecarboxylic acid] | 
3 | 1 nM | Cc1cc(CCCc2ccccc2)cc(C)c1C(=O)Nc1cc([C@H]2C[C@H]2C(=O)O)ccc1C(F)(F)F [Example 12, (1R,2S)-2-[3-{[2,6-Dimethyl-4-(3-phenylpropyl)benzoyl]amino}-4-(trifluoromethyl)phenyl]cyclopropanecarboxylic acid] | 
4 | 4.7 nM | Cc1cc(OCCc2ccc(F)cc2F)cc(C)c1C(=O)Nc1cc([C@H]2C[C@H]2C(=O)O)ccc1C(F)(F)F [Example 13, (1R,2S)-2-[3-({4-[2-(2,4-Difluorophenyl)ethoxy]-2,6-dimethylbenzoyl}amino)-4-(trifluoromethyl)phenyl]cyclopropanecarboxylic acid] | 
5 | < 0.3 nM | Cc1cc(OCCc2ccccc2)cc(C)c1C(=O)Nc1cc([C@H]2C[C@H]2C(=O)O)c(Cl)cc1C(F)(F)F [Example 15, (1R,2S)-2-[2-Chloro-5-{[2,6-dimethyl-4-(2-phenylethoxy)benzoyl]amino}-4-(trifluoromethyl)phenyl]cyclopropanecarboxylic acid] | 
6 | 0.9 nM | Cc1cc(OCCc2ccccc2)cc(C)c1C(=O)Nc1cc([C@H]2C[C@H]2C(=O)O)ccc1C(F)(F)F [Example 18, (1R,2S)-2-[3-{[2,6-Dimethyl-4-(2-phenylethoxy)benzoyl]amino}-4-(trifluoromethyl)phenyl]cyclopropanecarboxylic acid] | significantly smaller
7 | 12 nM | Cc1cc(OCCc2ccccc2)cc(C)c1C(=O)Nc1cc([C@@H]2C[C@@H]2C(=O)O)ccc1C(F)(F)F [Example 19, (1S,2R)-2-[3-{[2,6-Dimethyl-4-(2-phenylethoxy)benzoyl]amino}-4-(trifluoromethyl)phenyl]cyclopropanecarboxylic acid] | 
8 | 28 nM | Cc1cc(OCCc2cnn(C)c2)cc(C)c1C(=O)Nc1cc([C@H]2C[C@H]2C(=O)O)ccc1C(F)(F)F [Example 20, (1R,2S)-2-[3-({2,6-Dimethyl-4-[2-(1-methyl-1H-pyrazol-4-yl)ethoxy]benzoyl}amino)-4-(trifluoromethyl)phenyl]cyclopropanecarboxylic acid] | 
9 | 5 nM | Cc1cc(OCCC2CC2)cc(C)c1C(=O)Nc1cc([C@H]2C[C@H]2C(=O)O)ccc1C(F)(F)F [Example 20-1, (1R,2S)-2-[3-{[4-(2-Cyclopropylethoxy)-2,6-dimethylbenzoyl]amino}-4-(trifluoromethyl)phenyl]cyclopropanecarboxylic acid] | 
10 | 8.1 nM | Cc1cc(Oc2cncc(Cl)n2)cc(C)c1C(=O)Nc1cc([C@H]2C[C@H]2C(=O)O)ccc1C(F)(F)F [Example 21, (1R,2S)-2-[3-({4-[(6-Chloro-2-pyrazinyl)oxy]-2,6-dimethylbenzoyl}amino)-4-(trifluoromethyl)phenyl]cyclopropanecarboxylic acid] | 
11 | 5.2 nM | Cc1cc(OCCc2ccccc2)cc(C)c1C(=O)Nc1cc(CCC(=O)O)ccc1C(F)(F)F [Example 24, 3-[3-f{[2,6-Dimethyl-4-(2-phenylethoxy)benzoyl]amino}-4-(trifluoromethyl)phenyl]propanoic acid] | 
12 | 20 nM | Cc1cc(OCCc2ccccc2)cc(C)c1C(=O)Nc1cc(C(C)CC(=O)O)ccc1C(F)(F)F (stereo not shown) [Example 24-1, 3-[3-{[2,6-Dimethyl-4-(2-phenylethoxy)benzoyl]amino}-4-(trifluoromethyl)phenyl]butanoic acid] | 
13 | 12 nM | Cc1cc(OCCc2ccccc2)cc(C)c1C(=O)Nc1cc(CC(C)C(=O)O)ccc1C(F)(F)F (stereo not shown) [Example 24-2, 3-[3-f{[2,6-Dimethyl-4-(2-phenylethoxy)benzoyl]amino}-4-(trifluoromethyl)phenyl]-2-methylpropanoic acid] | 
14 | 2.2 nM | Cc1cc(OCCc2ccccc2)cc(C)c1C(=O)Nc1cc([C@H]2CC[C@H]2C(=O)O)ccc1C(F)(F)F [Example 25, (1R,2S)-2-[3-{[2,6-Dimethyl-4-(2-phenylethoxy)benzoyl]amino}-4-(trifluoromethyl)phenyl]cyclobutanecarboxylic acid] | 
15 | 27 nM | Cc1cc(OCCc2ccccc2)cc(C)c1C(=O)Nc1cc([C@H]2C[C@@]2(C)C(=O)O)ccc1C(F)(F)F [Example 26, (1R,2R)-2-[3-{[2,6-Dimethyl-4-(2-phenylethoxy)benzoyl]amino}-4-(trifluoromethyl)phenyl]-1-methylcyclopropanecarboxylic acid] | 
16 | 4 nM | CC(C)c1cc(OCc2ccccc2)ccc1C(=O)Nc1cc([C@H]2C[C@H]2C(=O)O)ccc1C(F)(F)F [Example 28, (1R,2S)-2-[3-{[4-(Benzyloxy)-2-isopropylbenzoyl]amino}-4-(trifluoromethyl)phenyl]cyclopropanecarboxylic acid] | 
17 | 11 nM | CC(C)c1c(OCc2ccccc2)cccc1C(=O)Nc1cc([C@H]2C[C@H]2C(=O)O)ccc1C(F)(F)F [Example 29-1, (1R,2S)-2-[3-{[3-(Benzyloxy)-2-isopropylbenzoyl]amino}-4-(trifluoromethyl)phenyl]cyclopropanecarboxylic acid] | 
18 | 8.9 nM | CC(C)c1nn(CCCc2ccccc2)cc1C(=O)Nc1cc([C@H]2C[C@H]2C(=O)O)ccc1C(F)(F)F [Example 31-1, (1R,2S)-2-[3-({[3-Isopropyl-1-(3-phenylpropyl)-1H-pyrazol-4-yl]carbonyl}amino)-4-(trifluoromethyl)phenyl]cyclopropanecarboxylic acid] | 
19 | 1.3 nM | CC(C)c1c(C(=O)Nc2cc([C@H]3C[C@H]3C(=O)O)ccc2C(F)(F)F)cnn1CCCc1ccccc1 [Example 31-2, (1R,2S)-2-[3-({[5-Isopropyl-1-(3-phenylpropyl)-1H-pyrazol-4-yl]carbonyl}amino)-4-(trifluoromethyl)phenyl]cyclopropanecarboxylic acid] | 
20 | 13 nM | Cc1cc(OCCc2ccccc2)cc(C)c1C(=S)Nc1cc([C@H]2C[C@H]2C(=O)O)ccc1C(F)(F)F [Example 32, (1R,2S)-2-[3-({[2,6-Dimethyl-4-(2-phenylethoxy)phenyl]carbonothioyl}amino)-4-(trifluoromethyl)phenyl]cyclopropanecarboxylic acid] | 
21 | < 0.3 nM | CCC(C)c1c(C(=O)Nc2cc([C@H]3C[C@H]3C(=O)O)ccc2C(F)(F)F)ccn1CCCc1ccccc1 (stereo partly drawn) [Example 34, (1R,2S)-2-[3-({[2-sec-Butyl-1-(3-phenylpropyl)-1H-pyrrol-3-yl]carbonyl}amino)-4-(trifluoromethyl)phenyl]cyclopropanecarboxylic acid] | 
